The values below come from patent US20090246198A1, “MAPK/ERK KINASE INHIBITORS AND METHODS OF USE THEREOF” (TAKEDA PHARMACEUTICAL COMPANY LIMITED, priority 2008, published 2009).

T1 sequence (Q02750 with tags, fused parts or gaps DEL33-52/S218E/S222D): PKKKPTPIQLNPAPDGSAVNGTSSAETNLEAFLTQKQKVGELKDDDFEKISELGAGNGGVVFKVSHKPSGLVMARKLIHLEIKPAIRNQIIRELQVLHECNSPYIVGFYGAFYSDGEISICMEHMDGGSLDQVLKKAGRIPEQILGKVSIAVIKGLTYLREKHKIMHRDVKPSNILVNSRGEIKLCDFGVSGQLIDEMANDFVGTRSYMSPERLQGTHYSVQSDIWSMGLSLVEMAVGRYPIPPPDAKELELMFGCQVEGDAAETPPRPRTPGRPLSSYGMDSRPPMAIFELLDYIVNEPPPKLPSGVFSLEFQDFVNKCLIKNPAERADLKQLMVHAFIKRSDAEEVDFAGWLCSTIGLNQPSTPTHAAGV

The assay concerns the target T1, MEK1 (Homo sapiens, UniProt Q02750, DEL33-52/S218E/S222D).
T1 construct: 6-histidine tag (N); made in house; host or cells: MEK1: baculovirus / Spodoptera frugiperda Sf9; ERK1: E. coli
Kind of assay: MEK1 inhibition, fluorescence polarization (IMAP) assay with ERK1 and FI-Erktide. As to conditions: 1 nM MEK1, 25 nM ERK1, 400 μM ATP, 22 min at room temperature; read-out: pIC50 (nM); IC50 of Exemplified Compounds against MEK1 (converted). The class given is biochemical. How it is done:
[…] […] […] SEQ ID NO: 2 is the DNA sequence that was used to encode SEQ ID NO: 1.
The inhibitory properties of compounds relative to MEK1 or MEK2 may be determined using a black 384-well-plate format under the following reaction conditions: 50 mM HEPES pH 7.3, 10 mM NaCl, 10 mM MgCl2, 0.01% Brij35, 1 nM MEK1 or 4 nM MEK2, 25 nM ERK1, 400 μM ATP, 500 nM IPTTPITTYFFFK-5FAM-COOH (FI-Erktide), and 1% DMSO. Reaction product is determined quantitatively by fluorescent polarization using progressive IMAP beads from Molecular Devices.
The assay reaction may be initiated as follows: 2 μl of the mixture of 1.5 μM FI-Erktide and 75 nM ERK with 2 μl of inhibitor (2 fold serial dilutions for 11 data points for each inhibitor) containing 3% DMSO were added to each well of the plate, followed by the addition of 2 μl of the mixture of 3 nM MEK1 or 12 nM MEK2and 1200 μM ATP to initiate the reaction (final enzyme concentration was 1 nM for MEK1 or 4 nM for MEK2). The reaction mixture may then be incubated at room temperature for 22 min, and quenched and developed by addition of 20 μl of 1:200 dilution of progressive IMAP beads (Molecular Devices) in 80% buffer A, 20% buffer B and 0.003% Tween 20. Fluorescence polarization of the resulting reaction mixtures may be measured after a 1 hour incubation at room temperature.
IC50 values may be calculated by non-linear curve fitting of the compound concentrations and fluorescence polarization signal to the standard IC50 equation.
A general note: In fluorescence polarisation assays a small probe gives low polarisation when free and higher when bound to something large.
With `Cn1c(=O)cc(Nc2ccc(I)cc2F)c2c(=O)n(C[C@@H](O)CO)ccc21` [Example 1R, (R)-6-(2,3-dihydroxypropyl)-4-(2-fluoro-4-iodophenylamino)-1-methyl-1,6-naphthyridine-2,5(1H,6H)-dione], the IC50 is less than 100 nM.
Turning to `Cn1c(=O)c(F)c(Nc2ccc(I)cc2F)c2c(=O)n(C[C@H](O)CO)ccc21` [Example 3S, (S)-6-(2,3-dihydroxypropyl)-3-fluoro-4-(2-fluoro-4-iodophenylamino)-1-methyl-1,6-naphthyridine-2,5(1H,6H)-dione], the IC50 was less than 100 nM.
As to `Cn1c(=O)cc(Nc2ccc(Br)cc2F)c2c(=O)n(C[C@H](O)CO)ccc21` [Example 2S, (S)-4-(4-bromo-2-fluorophenylamino)-6-(2,3-dihydroxypropyl)-1-methyl-1,6-naphthyridine-2,5(1H,6H)-dione], the IC50 was less than 100 nM.
Take `Cn1c(=O)cc(Nc2ccc(I)cc2F)c2c(=O)n(C[C@H](O)CO)ccc21` [Example 1S, (S)-6-(2,3-dihydroxypropyl)-4-(2-fluoro-4-iodophenylamino)-1-methyl-1,6-naphthyridine-2,5(1H,6H)-dione]: the IC50 was less than 100 nM.
Take `Cn1c(=O)c(F)c(Nc2ccc(Br)cc2F)c2c(=O)n(C[C@@H](O)CO)ccc21` [Example 4, (R)-4-(4-bromo-2-fluorophenylamino)-6-(2,3-dihydroxypropyl)-3-fluoro-1-methyl-1,6-naphthyridine-2,5(1H,6H)-dione]: the IC50 was less than 100 nM.
`Cn1c(=O)cc(Nc2ccc(Br)cc2F)c2c(=O)n(C[C@@H](O)CO)ccc21` [Example 2R, (R)-4-(4-bromo-2-fluorophenylamino)-6-(2,3-dihydroxypropyl)-1-methyl-1,6-naphthyridine-2,5(1H,6H)-dione]: the IC50 is no less than 100 nM.
In the case of `Cn1c(=O)cc(Nc2ccc(Br)cc2F)c2c(=O)n(CC(O)CO)ccc21` (racemic) [Example 2, 4-(4-bromo-2-fluorophenylamino)-6-(2,3-dihydroxypropyl)-1-methyl-1,6-naphthyridine-2,5(1H,6H)-dione] it was less than 100 nM; in that of `Cn1c(=O)cc(Nc2ccc(C3CC3)cc2F)c2c(=O)n(C[C@@H](O)CO)ccc21` [Example 6, (R)-4-(4-cyclopropyl-2-fluorophenylamino)-6-(2,3-dihydroxypropyl)-1-methyl-1,6-naphthyridine-2,5(1H,6H)-dione], no less than 100 nM.
Regarding `C#Cc1ccc(Nc2c(F)c(=O)n(C)c3ccn(C[C@@H](O)CO)c(=O)c23)c(F)c1` [Example 5, (R)-6-(2,3-dihydroxypropyl)-4-(4-ethynyl-2-fluorophenylamino)-3-fluoro-1-methyl-1,6-naphthyridine-2,5(1H,6H)-dione], the IC50 is less than 100 nM.
Then `Cn1c(=O)c(F)c(Nc2ccc(I)cc2F)c2c(=O)n(C[C@@H](O)CO)ccc21` [Example 3R, (R)-6-(2,3-dihydroxypropyl)-3-fluoro-4-(2-fluoro-4-iodophenylamino)-1-methyl-1,6-naphthyridine-2,5(1H,6H)-dione], with less than 100 nM.
